Results from the supplement of paper PMC12463676, “Small-molecule dissolution of stress granules by redox modulation benefits ALS models” (Nature Chemical Biology, 2025).

Assays:
[1] = compound: O=[As]([O-])(O)O.[K+] [potassium arsenate]; experiment: thermal stability z-score vs DMSO; higher = more thermally stabilized by treatment; conditions: HeLa; arsenate concentration 1 mM
Experimental: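 Cellular thermal proteome profiling in HeLa cells treated with 1 mM arsenate for 1 h (DMSO pretreatment), heated to ten temperatures (37-66.3 °C). Soluble protein was quantified by TMT mass spectrometry relative to DMSO controls; the thermal stability score was transformed to a z-score; mean of n = 3 experiments.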

[2] = compound: NC(=O)CCCCC1CCSS1 [lipoamide]; experiment: as above; conditions: HeLa, lipoamide concentration 100 µM
Experimental: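 Cellular thermal proteome profiling in HeLa cells. Cells were treated with 100 µM lipoamide for 1 h, with or without 1 mM arsenate for a further 1 h, then heated to ten temperatures (37-66.3 °C), and soluble protein was quantified by TMT mass spectrometry relative to 0.1% DMSO controls. The thermal stability score (sum of log2 fold changes minus the abundance score) was transformed to a z-score; mean of n = 3 experiments.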

[3] = arsenate co-treatment: 1 mM arsenate 1 h
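Note: each temperature applied for 3 min, abundance score taken as mean log2 fold change at the two lowest temperatures, z-score obtained by mean subtraction and division by SD.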

UniProt O95433, sequence (O95433 whole entry): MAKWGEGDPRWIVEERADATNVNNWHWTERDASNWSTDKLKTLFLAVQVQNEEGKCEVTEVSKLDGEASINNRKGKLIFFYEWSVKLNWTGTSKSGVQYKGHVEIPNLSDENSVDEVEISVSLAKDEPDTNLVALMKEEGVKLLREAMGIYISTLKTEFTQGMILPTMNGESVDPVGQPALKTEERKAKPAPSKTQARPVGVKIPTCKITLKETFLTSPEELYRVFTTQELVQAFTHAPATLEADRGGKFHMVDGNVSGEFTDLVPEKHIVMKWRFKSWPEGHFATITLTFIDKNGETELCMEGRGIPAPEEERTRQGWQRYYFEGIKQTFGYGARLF
UniProt Q9Y2H0, sequence (Q9Y2H0 whole entry): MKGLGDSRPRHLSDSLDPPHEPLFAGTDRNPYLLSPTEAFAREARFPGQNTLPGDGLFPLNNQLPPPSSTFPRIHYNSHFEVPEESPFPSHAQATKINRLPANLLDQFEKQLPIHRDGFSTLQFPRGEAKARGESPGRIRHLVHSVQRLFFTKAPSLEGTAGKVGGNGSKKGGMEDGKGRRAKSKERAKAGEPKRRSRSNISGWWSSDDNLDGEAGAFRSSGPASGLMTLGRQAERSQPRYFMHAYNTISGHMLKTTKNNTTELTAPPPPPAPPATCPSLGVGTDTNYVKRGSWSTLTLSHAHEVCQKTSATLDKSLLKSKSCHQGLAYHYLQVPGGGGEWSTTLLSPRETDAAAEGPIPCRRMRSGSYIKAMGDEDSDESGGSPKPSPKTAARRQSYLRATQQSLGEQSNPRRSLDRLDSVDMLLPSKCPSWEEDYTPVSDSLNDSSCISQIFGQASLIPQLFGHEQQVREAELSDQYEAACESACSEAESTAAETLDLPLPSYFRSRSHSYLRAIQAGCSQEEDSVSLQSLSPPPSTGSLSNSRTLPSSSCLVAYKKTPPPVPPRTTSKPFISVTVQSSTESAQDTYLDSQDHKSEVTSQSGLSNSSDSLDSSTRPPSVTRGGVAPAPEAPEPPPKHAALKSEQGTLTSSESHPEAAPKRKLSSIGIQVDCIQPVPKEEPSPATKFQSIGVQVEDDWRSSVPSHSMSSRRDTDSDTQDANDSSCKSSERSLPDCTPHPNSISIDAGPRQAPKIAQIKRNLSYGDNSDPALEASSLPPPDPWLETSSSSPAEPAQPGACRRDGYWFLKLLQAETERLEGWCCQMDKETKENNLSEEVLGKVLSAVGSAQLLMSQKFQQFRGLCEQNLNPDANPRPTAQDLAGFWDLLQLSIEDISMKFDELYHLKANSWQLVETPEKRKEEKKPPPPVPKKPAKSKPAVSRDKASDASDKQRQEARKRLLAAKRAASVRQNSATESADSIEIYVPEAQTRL
UniProt P13489, sequence (P13489 whole entry): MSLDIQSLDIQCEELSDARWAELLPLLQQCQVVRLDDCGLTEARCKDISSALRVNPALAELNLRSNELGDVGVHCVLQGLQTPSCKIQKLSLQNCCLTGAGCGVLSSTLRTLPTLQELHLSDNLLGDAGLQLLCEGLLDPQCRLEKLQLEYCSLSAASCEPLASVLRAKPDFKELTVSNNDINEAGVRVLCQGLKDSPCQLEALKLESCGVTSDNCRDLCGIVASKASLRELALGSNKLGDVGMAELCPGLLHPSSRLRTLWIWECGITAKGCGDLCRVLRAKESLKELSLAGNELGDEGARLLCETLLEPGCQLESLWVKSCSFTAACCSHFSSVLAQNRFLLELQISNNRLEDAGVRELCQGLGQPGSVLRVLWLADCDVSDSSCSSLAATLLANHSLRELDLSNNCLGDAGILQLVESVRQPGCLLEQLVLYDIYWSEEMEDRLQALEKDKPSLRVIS
UniProt P05387, sequence (P05387 whole entry): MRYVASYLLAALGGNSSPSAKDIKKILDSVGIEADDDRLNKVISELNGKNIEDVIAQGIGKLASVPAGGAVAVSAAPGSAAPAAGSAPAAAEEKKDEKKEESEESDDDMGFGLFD
UniProt O60476, sequence (O60476 whole entry): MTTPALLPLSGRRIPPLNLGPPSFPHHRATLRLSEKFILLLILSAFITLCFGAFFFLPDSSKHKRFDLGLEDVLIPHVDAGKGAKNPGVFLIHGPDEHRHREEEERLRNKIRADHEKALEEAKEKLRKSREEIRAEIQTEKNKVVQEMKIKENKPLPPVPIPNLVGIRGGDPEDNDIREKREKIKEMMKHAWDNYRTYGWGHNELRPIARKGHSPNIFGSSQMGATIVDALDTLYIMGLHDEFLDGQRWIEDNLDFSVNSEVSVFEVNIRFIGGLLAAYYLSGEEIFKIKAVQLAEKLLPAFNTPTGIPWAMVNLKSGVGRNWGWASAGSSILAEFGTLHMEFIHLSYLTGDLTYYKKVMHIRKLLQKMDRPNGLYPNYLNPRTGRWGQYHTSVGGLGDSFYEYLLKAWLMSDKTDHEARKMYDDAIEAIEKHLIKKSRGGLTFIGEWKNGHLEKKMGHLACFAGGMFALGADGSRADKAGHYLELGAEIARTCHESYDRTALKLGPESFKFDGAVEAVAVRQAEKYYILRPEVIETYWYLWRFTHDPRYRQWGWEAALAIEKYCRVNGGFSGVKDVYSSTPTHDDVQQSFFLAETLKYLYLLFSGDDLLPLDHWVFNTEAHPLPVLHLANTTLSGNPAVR
UniProt Q9H9Y6, sequence (Q9H9Y6 whole entry): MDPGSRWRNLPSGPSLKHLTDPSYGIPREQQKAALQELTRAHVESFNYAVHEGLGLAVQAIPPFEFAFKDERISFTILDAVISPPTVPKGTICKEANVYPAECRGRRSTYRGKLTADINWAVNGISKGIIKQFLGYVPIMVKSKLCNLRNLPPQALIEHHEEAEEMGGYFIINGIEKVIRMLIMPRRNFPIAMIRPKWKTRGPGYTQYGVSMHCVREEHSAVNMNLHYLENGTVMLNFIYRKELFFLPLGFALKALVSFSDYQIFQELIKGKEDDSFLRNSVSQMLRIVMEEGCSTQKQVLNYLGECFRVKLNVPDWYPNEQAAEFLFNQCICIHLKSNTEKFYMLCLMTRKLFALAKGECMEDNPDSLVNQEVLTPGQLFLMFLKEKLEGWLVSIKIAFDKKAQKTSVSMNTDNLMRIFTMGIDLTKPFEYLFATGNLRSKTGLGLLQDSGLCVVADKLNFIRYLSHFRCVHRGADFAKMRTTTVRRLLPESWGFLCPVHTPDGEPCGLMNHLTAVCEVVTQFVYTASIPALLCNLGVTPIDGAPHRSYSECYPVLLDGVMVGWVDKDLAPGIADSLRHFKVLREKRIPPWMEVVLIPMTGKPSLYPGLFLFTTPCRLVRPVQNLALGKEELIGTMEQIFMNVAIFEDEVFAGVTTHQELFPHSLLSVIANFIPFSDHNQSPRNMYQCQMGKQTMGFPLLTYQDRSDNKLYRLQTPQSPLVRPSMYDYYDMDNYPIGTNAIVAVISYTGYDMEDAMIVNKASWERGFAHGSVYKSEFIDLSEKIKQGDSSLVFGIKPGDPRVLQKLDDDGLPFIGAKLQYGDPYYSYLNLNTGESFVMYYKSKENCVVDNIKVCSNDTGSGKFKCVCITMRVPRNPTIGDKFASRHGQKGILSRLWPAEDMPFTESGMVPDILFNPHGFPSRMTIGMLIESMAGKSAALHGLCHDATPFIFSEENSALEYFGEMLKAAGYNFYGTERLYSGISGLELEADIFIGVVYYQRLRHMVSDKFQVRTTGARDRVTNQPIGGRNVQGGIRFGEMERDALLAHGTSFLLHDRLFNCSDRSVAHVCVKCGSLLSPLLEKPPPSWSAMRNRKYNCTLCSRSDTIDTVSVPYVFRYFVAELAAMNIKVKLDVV
UniProt Q15527, sequence (Q15527 whole entry): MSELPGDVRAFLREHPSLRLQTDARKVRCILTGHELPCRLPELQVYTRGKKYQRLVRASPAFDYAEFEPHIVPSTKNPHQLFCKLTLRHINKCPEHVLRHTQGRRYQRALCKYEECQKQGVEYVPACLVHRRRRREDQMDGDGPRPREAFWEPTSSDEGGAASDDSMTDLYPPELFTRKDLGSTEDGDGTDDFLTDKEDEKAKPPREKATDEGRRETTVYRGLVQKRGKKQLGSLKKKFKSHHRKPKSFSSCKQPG
UniProt O00408, sequence (O00408 whole entry): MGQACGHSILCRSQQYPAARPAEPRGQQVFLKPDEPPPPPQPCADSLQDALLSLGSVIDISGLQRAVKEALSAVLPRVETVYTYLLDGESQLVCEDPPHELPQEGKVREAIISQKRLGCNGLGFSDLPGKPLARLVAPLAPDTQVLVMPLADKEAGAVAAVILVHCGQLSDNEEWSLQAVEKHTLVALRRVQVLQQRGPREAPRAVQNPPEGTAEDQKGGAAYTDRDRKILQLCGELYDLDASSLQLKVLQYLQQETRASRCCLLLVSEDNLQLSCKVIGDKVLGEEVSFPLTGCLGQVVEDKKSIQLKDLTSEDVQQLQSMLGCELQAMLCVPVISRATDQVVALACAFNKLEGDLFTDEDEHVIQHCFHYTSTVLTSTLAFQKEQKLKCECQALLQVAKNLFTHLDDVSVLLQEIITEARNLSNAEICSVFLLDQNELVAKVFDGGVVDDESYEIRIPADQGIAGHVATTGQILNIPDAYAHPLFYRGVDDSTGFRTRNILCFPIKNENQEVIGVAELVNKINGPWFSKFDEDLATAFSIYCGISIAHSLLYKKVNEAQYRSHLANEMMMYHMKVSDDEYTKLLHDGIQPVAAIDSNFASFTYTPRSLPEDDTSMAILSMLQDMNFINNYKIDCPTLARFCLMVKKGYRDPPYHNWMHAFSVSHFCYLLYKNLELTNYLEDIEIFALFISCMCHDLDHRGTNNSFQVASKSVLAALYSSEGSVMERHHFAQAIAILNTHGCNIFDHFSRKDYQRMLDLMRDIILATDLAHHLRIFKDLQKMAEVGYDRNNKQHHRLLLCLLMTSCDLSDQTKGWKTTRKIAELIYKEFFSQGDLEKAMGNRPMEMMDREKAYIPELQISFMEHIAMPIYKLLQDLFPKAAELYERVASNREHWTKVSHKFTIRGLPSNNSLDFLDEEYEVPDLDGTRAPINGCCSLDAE
UniProt P07108, sequence (P07108 whole entry): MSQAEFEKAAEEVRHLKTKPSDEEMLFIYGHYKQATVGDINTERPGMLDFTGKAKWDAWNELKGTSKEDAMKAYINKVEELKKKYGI

Target	thermal stability z-score [1]	thermal stability z-score [2, 3]	thermal stability z-score ([2]; arsenate co-treatment: none)
C12ORF29 (UniProt Q8N999)	-1.5	0.423	-0.117
NCAPH (UniProt Q15003)	0.387	-1.04	-0.316
USP10 (UniProt Q14694)	-0.241	0.103	0.045
EIF2B3 (UniProt Q9NR50)	0.582	-0.44	0.0579
FKBP15 (UniProt Q5T1M5)	0.523	-0.422	-0.17
RAP2B (UniProt P61225)	-0.0313	0.92	0.134
MAN1A2 (UniProt O60476)	-0.352	-0.432	-0.498
CDK6 (UniProt Q00534)	0.123	-0.218	0.136
TUBG1 (UniProt P23258)	0.415	0.135	-0.106
CHMP6 (UniProt Q96FZ7)	0.217	0.476	0.273
ITGA1 (UniProt P56199)	-0.126	0.216	0.171
TRAPPC5 (UniProt Q8IUR0)	0.00376	1.28	-0.246
POLR1B (UniProt Q9H9Y6)	-1.91	0.138	-0.017
DUSP12 (UniProt Q9UNI6)	1.05	-0.0977	0.123
ABI2 (UniProt Q9NYB9)	0.72	0.0724	0.978
LRRC57 (UniProt Q8N9N7)	-0.186	0.252	-0.185
SRP54 (UniProt P61011)	0.715	-0.193	0.172
RCL1 (UniProt Q9Y2P8)	2.29	1.4	0.192
DPH5 (UniProt Q9H2P9)	-0.179	0.634	1.89
CSTB (UniProt P04080)	0.59	0.399	0.0839
PDE2A (UniProt O00408)	-0.355	-0.284	0.382
PLBD2 (UniProt Q8NHP8)	0.464	-0.0663	0.0581
SLC25A11 (UniProt Q02978)	0.593	0.183	0.431
PUM3 (UniProt Q15397)	0.369	0.119	-0.0918

Target	thermal stability z-score [1]	thermal stability z-score [2, 3]	thermal stability z-score ([2]; arsenate co-treatment: none)
GFPT2 (UniProt O94808)	-0.593	0.344	-0.0258
PCIF1 (UniProt Q9H4Z3)	-0.0419	0.0909	0.207
STAT5B (UniProt P51692)	0.0458	-0.378	-0.11
KLHL26 (UniProt Q53HC5)	-0.108	-0.138	-0.165
PPP1R21 (UniProt Q6ZMI0)	-0.839	-0.328	-0.0718
RNH1 (UniProt P13489)	-4.26	0.376	0.478
H2AFX (UniProt P16104)	-0.415	-0.033	-0.0884
HERC1 (UniProt Q15751)	-0.0795	-0.83	-0.54
LRRC8A (UniProt Q8IWT6)	-0.275	0.614	0.234
AVL9 (UniProt Q8NBF6)	0.203	0.0764	0.143
SEC11C (UniProt Q9BY50)	0.222	-0.973	-0.842
DLGAP4 (UniProt Q9Y2H0)	-2.62	-0.0201	-0.367
PNO1 (UniProt Q9NRX1)	-0.698	0.465	0.362
PLEKHF2 (UniProt Q9H8W4)	-0.196	-0.1	-0.117
FUBP1 (UniProt Q96AE4)	0.0234	0.139	0.157
ARNT (UniProt P27540)	0.561	0.605	0.794
UniProt F5GYJ5	0.166	0.464	0.437
ZFYVE19 (UniProt Q96K21)	-3.34	-0.473	-0.599
ACBD5 (UniProt Q5T8D3)	0.243	-1.5	-0.737
LIN9 (UniProt Q5TKA1)	-0.121	-0.0678	-0.263
DBI (UniProt P07108)	-0.228	1.09	0.274
BCAS3 (UniProt Q9H6U6)	-0.0972	-0.0897	0.561
MAP1LC3B2|MAP1LC3B	0.485	0.0751	0.888
AHSA1 (UniProt O95433)	0.423	0.722	0.671

Target	thermal stability z-score [1]	thermal stability z-score [2, 3]	thermal stability z-score ([2]; arsenate co-treatment: none)
MAP2K4 (UniProt P45985)	-0.444	-0.37	0.139
SURF2 (UniProt Q15527)	-0.529	-0.0697	0.247
AIM1	0.00488	-0.151	-0.209
ORC6 (UniProt Q9Y5N6)	-1.11	-0.246	-0.0524
ME2 (UniProt P23368)	-1.26	0.621	-0.0427
SOCS6 (UniProt O14544)	0.053	0.0176	0.0429
ERC1 (UniProt Q8IUD2)	0.574	-0.3	-0.166
RPLP2 (UniProt P05387)	0.225	1.56	1.34
RAD21 (UniProt O60216)	0.297	0.628	0.377
ERP44 (UniProt Q9BS26)	0.885	-2.86	-2.35
SETD7 (UniProt Q8WTS6)	-0.402	-0.766	0.0448
RAB29 (UniProt O14966)	0.157	0.114	-0.0606
NUBPL (UniProt Q8TB37)	-0.262	-0.216	-0.498
MASTL (UniProt Q96GX5)	-0.0433	-0.0186	-0.102
POLR3C (UniProt Q9BUI4)	-0.411	0.213	0.0462
M6PR (UniProt P20645)	0.167	0.401	-0.0131
RAD51 (UniProt Q06609)	-0.0411	0.0327	0.256
SNRPC (UniProt P09234)	0.905	0.137	0.0659
AGFG2 (UniProt O95081)	-0.791	-0.423	-0.0283
CACYBP (UniProt Q9HB71)	0.37	0.276	0.0201
DDX46 (UniProt Q7L014)	-1.2	0.411	0.501
KIF1B (UniProt O60333)	-0.321	-0.488	-0.322
IRF2BP1 (UniProt Q8IU81)	-0.228	-0.196	-0.13
RBBP9 (UniProt O75884)	0.167	0.308	0.162
